Data taken from the supplement of paper PMC10307832.

Assays:
Experiment in all cases: relative viability (nuclei count vs DMSO), 5 days (fraction); higher = more cells survive
[1] = compound: COc1cc(Nc2c(C#N)cnc3cc(OCCCN4CCN(C)CC4)c(OC)cc23)c(Cl)cc1Cl [Bosutinib] + O=C(c1cc(Cc2n[nH]c(=O)c3ccccc23)ccc1F)N1CCN(C(=O)C2CC2)CC1 [Olaparib] (partner 8 µM)
How it was run: (§1)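 After 5 days of treatment, lung cancer cells in 1536-well plates were fixed and stained in a single step (final 0.05% Triton X-100, 1% formaldehyde, 1 ug/ml Hoechst) and their nuclei counted on 4× images. Treatment had been applied by pin tool the day after seeding as one drug alone or as a fixed anchor-drug dose with five library-drug doses (not always all listed) in √10 steps. Relative viability is the nuclei count of treated wells divided by that of vehicle wells, and values are medians of duplicate plates.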

[2] = compound: COc1cc(Nc2c(C#N)cnc3cc(OCCCN4CCN(C)CC4)c(OC)cc23)c(Cl)cc1Cl [Bosutinib] + Cc1nc(Nc2ncc(C(=O)Nc3c(C)cccc3Cl)s2)cc(N2CCN(CCO)CC2)n1 [Dasatinib] (partner 0.075 µM)
How it was run: as §1

[3] = compound: COc1cc(Nc2c(C#N)cnc3cc(OCCCN4CCN(C)CC4)c(OC)cc23)c(Cl)cc1Cl [Bosutinib] + O=C(CCCCCCC(=O)Nc1ccccc1)NO [Vorinostat] (partner 1 µM)
How it was run: as §1

[4] = compound: COc1cc(Nc2c(C#N)cnc3cc(OCCCN4CCN(C)CC4)c(OC)cc23)c(Cl)cc1Cl [Bosutinib] + C[C@]1(O)C[C@@H](c2nc(-c3ccc4ccc(-c5ccccc5)nc4c3)c3c(N)nccn32)C1 [Linsitinib] (partner 1 µM)
How it was run: as §1

[5] = compound: COc1cc(Nc2c(C#N)cnc3cc(OCCCN4CCN(C)CC4)c(OC)cc23)c(Cl)cc1Cl [Bosutinib] + Cc1cc(Nc2cc(N3CCN(C)CC3)nc(Sc3ccc(NC(=O)C4CC4)cc3)n2)n[nH]1 [Tozasertib] (partner 0.1 µM)
How it was run: as §1

| Cell Line | relative viability ([1]; first compound 0.01 µM) | relative viability ([1]; first compound 0.03162 µM) | relative viability ([1]; first compound 0.1 µM) | relative viability ([1]; first compound 1 µM) | relative viability ([2]; first compound 0.01 µM) | relative viability ([2]; first compound 0.03162 µM) | relative viability ([2]; first compound 0.1 µM) | relative viability ([2]; first compound 1 µM) | relative viability ([3]; first compound 0.01 µM) | relative viability ([3]; first compound 0.03162 µM) | relative viability ([3]; first compound 0.1 µM) | relative viability ([3]; first compound 1 µM) | relative viability ([4]; first compound 0.01 µM) | relative viability ([4]; first compound 0.03162 µM) | relative viability ([4]; first compound 0.1 µM) | relative viability ([4]; first compound 1 µM) | relative viability ([5]; first compound 0.01 µM) | relative viability ([5]; first compound 0.03162 µM) | relative viability ([5]; first compound 0.1 µM) | relative viability ([5]; first compound 1 µM) |
| --- | --- | --- | --- | --- | --- | --- | --- | --- | --- | --- | --- | --- | --- | --- | --- | --- | --- | --- | --- | --- |
| NCI-H1651 | 0.184 | 0.189 | 0.184 | 0.201 | 0.488 | 0.452 | 0.433 | 0.482 | 0.548 | 0.636 | 0.646 | 0.569 | 0.911 | 1.02 | 0.939 | 0.724 | 0.586 | 0.742 | 0.612 | 0.624 |
| NCI-H1666 | 0.713 | 0.701 | 0.756 | 0.794 | 0.75 | 0.834 | 0.814 | 0.808 | 0.99 | 0.99 | 1.12 | 1.22 | 0.774 | 0.774 | 0.794 | 0.662 | 0.57 | 0.626 | 0.629 | 0.662 |
| NCI-H1734 | 0.629 | 0.62 | 0.584 | 0.488 | 0.523 | 0.508 | 0.512 | 0.46 | 0.836 | 0.86 | 0.855 | 0.654 | 0.88 | 0.945 | 0.914 | 0.706 | 0.245 | 0.242 | 0.245 | 0.248 |
| NCI-H1755 | 0.874 | 0.998 | 0.861 | 0.885 | 0.427 | 0.476 | 0.438 | 0.433 | 0.809 | 0.919 | 0.904 | 0.731 | 0.952 | 1.03 | 1.02 | 0.954 | 0.585 | 0.736 | 0.605 | 0.5 |
| NCI-H1793 | 0.815 | 0.804 | 0.755 | 0.539 | 0.465 | 0.392 | 0.391 | 0.347 | 0.718 | 0.75 | 0.877 | 0.504 | 0.875 | 0.742 | 0.904 | 0.551 | 0.363 | 0.404 | 0.373 | 0.23 |
| NCI-H1915 | 0.259 | 0.256 | 0.258 | 0.26 | 0.323 | 0.323 | 0.33 | 0.297 | 0.509 | 0.531 | 0.578 | 0.571 | 1.04 | 1.1 | 1.08 | 1.14 | 0.438 | 0.449 | 0.429 | 0.419 |
| NCI-H1944 | 0.411 | 0.384 | 0.417 | 0.433 | 0.216 | 0.2 | 0.209 | 0.208 | 0.608 | 0.577 | 0.572 | 0.569 | 1.18 | 1.25 | 1.14 | 0.809 | 0.275 | 0.262 | 0.258 | 0.19 |
| NCI-H1975 | 0.71 | 0.784 | 0.794 | 0.56 | 0.343 | 0.395 | 0.364 | 0.374 | 0.654 | 0.684 | 0.684 | 0.673 | 0.932 | 0.833 | 0.952 | 0.722 | 0.739 | 0.871 | 0.687 | 0.583 |
| NCI-H1993 | 0.988 | 0.996 | 1.04 | 1.01 | 0.492 | 0.63 | 0.589 | 0.622 | 0.727 | 0.733 | 0.654 | 0.885 | 0.749 | 0.759 | 0.645 | 0.762 | 0.549 | 0.538 | 0.564 | 0.496 |
| NCI-H2009 | 0.708 | 0.709 | 0.696 | 0.575 | 0.41 | 0.362 | 0.416 | 0.344 | 0.78 | 0.809 | 0.758 | 0.562 | 1.18 | 1.22 | 1.2 | 0.886 | 0.732 | 0.82 | 0.73 | 0.572 |
| NCI-H2023 | 0.493 | 0.427 | 0.461 | 0.423 | 0.683 | 0.599 | 0.65 | 0.583 | 0.617 | 0.661 | 0.767 | 0.396 | 0.763 | 0.743 | 0.62 | 0.402 | 0.295 | 0.462 | 0.399 | 0.233 |
| NCI-H2085 | 0.717 | 0.72 | 0.709 | 0.89 | 0.264 | 0.219 | 0.329 | 0.398 | 0.866 | 0.769 | 0.788 | 0.705 | 0.778 | 0.865 | 0.835 | 1 | 0.782 | 0.692 | 0.765 | 0.738 |
| NCI-H2087 | 0.663 | 0.599 | 0.749 | 0.649 | 0.871 | 0.848 | 0.913 | 0.848 | 0.777 | 0.5 | 0.647 | 0.697 | 0.871 | 1.08 | 0.779 | 0.94 | 0.293 | 0.227 | 0.222 | 0.271 |
| NCI-H2126 | 0.892 | 0.885 | 0.916 | 0.936 | 0.583 | 0.571 | 0.594 | 0.62 | 0.71 | 0.799 | 0.858 | 0.722 | 0.645 | 0.717 | 0.687 | 0.628 | 0.823 | 0.811 | 0.828 | 0.763 |
| NCI-H2228 | 0.654 | 0.671 | 0.468 | 0.735 | 0.494 | 0.474 | 0.56 | 0.62 | 0.664 | 0.442 | 0.605 | 0.552 | 0.821 | – | 0.818 | 0.496 | 0.313 | 0.319 | 0.306 | 0.287 |
| NCI-H2347 | 0.491 | 0.609 | 0.545 | 0.539 | 0.296 | 0.324 | 0.314 | 0.258 | 0.461 | 0.579 | 0.654 | 0.543 | 1.08 | 1 | 1.01 | 0.987 | 0.599 | 0.571 | 0.638 | 0.514 |
| NCI-H2405 | 0.978 | 0.887 | 0.902 | 0.691 | 0.259 | 0.204 | 0.215 | 0.238 | 1.04 | 1.33 | 1.39 | 0.766 | 0.953 | 0.949 | 0.954 | 0.418 | 0.738 | 0.796 | 0.743 | 0.661 |
| NCI-H3122 | 0.678 | 0.653 | 0.658 | 0.559 | 0.894 | 0.716 | 0.768 | 0.781 | 0.991 | 0.917 | 0.967 | 0.953 | 0.981 | 0.995 | 1.09 | 0.989 | 0.495 | 0.547 | 0.405 | 0.431 |
| PC-3 [JPC-3] | 1.08 | 1.09 | 1.06 | 0.663 | 1.04 | 0.931 | 0.996 | 0.834 | 0.853 | 0.983 | 0.918 | 0.541 | 0.954 | 0.957 | 0.971 | 0.912 | 0.856 | 0.854 | 0.92 | 0.819 |
| PC-14 | 0.241 | 0.342 | 0.208 | 0.21 | 0.282 | 0.239 | 0.238 | 0.0662 | 0.783 | 0.694 | 0.673 | 0.126 | 0.927 | 1.01 | 0.884 | 0.285 | 0.581 | 0.501 | 0.473 | 0.208 |
| RERF-LC-KJ | 0.883 | 0.867 | 0.958 | 0.989 | 0.746 | 0.882 | 0.826 | 0.735 | 0.691 | 0.705 | 0.733 | 0.811 | 0.893 | 0.885 | 0.845 | 0.838 | 0.58 | 0.436 | 0.491 | 0.599 |
| SK-LU-1 | 0.474 | 0.686 | 0.5 | 0.383 | 0.221 | 0.174 | 0.186 | 0.255 | 0.848 | 0.768 | 0.844 | 0.632 | 1.06 | 1.18 | 1.11 | 0.631 | 0.305 | 0.289 | 0.341 | 0.283 |
| SK-MES-1 | 0.671 | 0.896 | 0.798 | 0.458 | 0.372 | 0.412 | 0.393 | 0.392 | 1.21 | 1.13 | 1.12 | 0.812 | 1.16 | 1.07 | 1.08 | 0.941 | 0.95 | 0.927 | 0.844 | 0.854 |
| SW 1573 | 0.533 | 0.457 | 0.528 | 0.484 | 0.459 | 0.553 | 0.505 | 0.583 | 0.89 | 0.843 | 0.593 | 0.788 | 0.778 | 0.75 | 0.807 | 0.801 | 0.24 | 0.166 | 0.119 | 0.202 |
| UMC-11 | 0.64 | 0.672 | 0.248 | 0.686 | 0.409 | 0.454 | 0.456 | 0.455 | 0.354 | 0.383 | 0.43 | 0.364 | 0.916 | 0.981 | 0.967 | 0.866 | 0.202 | 0.191 | 0.189 | 0.214 |
